# Experiments:
# [1] = system: Phakopsora pachyrhizi (F129L); assay: Protective control of soybean rust on soybeans (PHAKPA P2); assay type: in vivo; conditions: for % PHAKPA (F129L) Disease level P2 at 4 ppm: protective P2, 4 ppm; for % PHAKPA (F129L) Disease level P2 at 4 ppm / % PHAKPA (F129L) Disease level P2 at 16 ppm: soybean rust F129L; for % PHAKPA (F129L) Disease level P2 at 16 ppm: protective P2, 16 ppm; for PHAKPA (F129L) Disease level (%) P2 at 16 ppm / PHAKPA (F129L) Disease level (%) P2 at 4 ppm: P2 protective, % diseased leaf area
# [2] = system: Phakopsora pachyrhizi (F129L); assay: Protective control of soybean rust on soybeans (PHAKPA P6); assay type: in vivo; conditions: for % PHAKPA (F129L) Disease level P6 at 4 ppm: protective P6, 4 ppm; for % PHAKPA (F129L) Disease level P6 at 4 ppm / % PHAKPA (F129L) Disease level P6 at 16 ppm: soybean rust F129L; for % PHAKPA (F129L) Disease level P6 at 16 ppm: protective P6, 16 ppm; for PHAKPA (F129L) Disease level (%) P6 at 16 ppm / PHAKPA (F129L) Disease level (%) P6 at 4 ppm: P6 protective, % diseased leaf area
SMILES,% PHAKPA (F129L) Disease level P2 at 4 ppm [1] [%],% PHAKPA (F129L) Disease level P2 at 16 ppm [1] [%],% PHAKPA (F129L) Disease level P6 at 4 ppm [2] [%],% PHAKPA (F129L) Disease level P6 at 16 ppm [2] [%],PHAKPA (F129L) Disease level (%) P2 at 16 ppm [1] [%],PHAKPA (F129L) Disease level (%) P6 at 16 ppm [2] [%],PHAKPA (F129L) Disease level (%) P2 at 4 ppm [1] [%],PHAKPA (F129L) Disease level (%) P6 at 4 ppm [2] [%]
CO/N=C(/C(=O)OC)c1cccc(C)c1CO/N=C(\C)c1ccccc1OC(F)F [compound 253],100,87,100,57,–,–,–,–
CNC(=O)/C(=N/OC)c1cccc(C)c1CO/N=C(\C)c1cc(F)c(F)cc1CC(F)(F)F [compound 406],97,30,67,23,–,–,–,–
C=Cc1cccc(/C(=N\OC)C(=O)OC)c1CO/N=C(\C)c1cccc(C(F)(F)F)c1 [Ex. 13],28,0,25,0,–,–,–,–
CNC(=O)/C(=N/OC)c1cccc(C)c1CO/N=C(\C)c1cccc(OC)c1 [compound 79],21,2,44,4,–,–,–,–
CO/N=C(/C(=O)OC)c1cccc(C)c1CO/N=C(\C)c1ccc(Cl)c(C)c1 [compound 102],60,11,90,43,–,–,–,–
CNC(=O)/C(=N/OC)c1cccc(C)c1CO/N=C(\C)c1cccc(CC2COC2)c1 [compound 161],100,100,100,90,–,–,–,–
CNC(=O)/C(=N/OC)c1cccc(C)c1CO/N=C(\C)c1ccc(/C(C)=N\OC)cc1OC(F)(F)F [compound 415],47,5,67,11,–,–,–,–
CNC(=O)/C(=N/OC)c1cccc(C)c1CO/N=C(\C)c1cccc(N2CC(F)(F)C2)c1 [Ex. 282],–,15,–,18,15,18,–,–
CNC(=O)/C(=N/OC)c1cccc(C)c1CO/N=C(\C)c1cccc(OC(F)(F)F)c1 [compound 29],–,0,–,0,–,–,–,–
CO/N=C(/C(=O)OC)c1cccc(C)c1CO/N=C(\C)c1cc(C)cc(C)c1 [compound 94],22,5,35,2,–,–,–,–
CO/N=C(/C(=O)OC)c1cccc(C)c1CO/N=C(\C)c1ccc(Cl)c(Cl)c1 [compound 40],40,18,63,22,–,–,–,–
CO/N=C(/C(=O)OC)c1cccc(C)c1CO/N=C(\C)c1ccc(OC(F)(F)F)cc1C [compound 259],80,17,93,40,–,–,–,–
CNC(=O)/C(=N/OC)c1ccccc1CO/N=C(\C)c1cc(Cl)ccc1Cl [reference compound],–,–,–,–,–,–,87,97
CNC(=O)/C(=N/OC)c1cccc(C)c1CO/N=C(/c1ccc(F)cc1)C(F)F [Ex. 27],5,0,32,0,0,0,–,–
CNC(=O)/C(=N/OC)c1cccc(C)c1CO/N=C(\C)c1cc(Br)ccc1F [compound 140],8,0,13,4,–,–,–,–
CNC(=O)/C(=N/OC)c1ccccc1CO/N=C(\C)c1ccccc1OC [reference compound],–,–,–,–,87,80,–,–
COC/C(=N\OCc1c(C)cccc1/C(=N\OC)C(=O)OC)c1cccc(C(F)(F)F)c1 [compound 191],77,2,83,22,–,–,–,–
CNC(=O)/C(=N/OC)c1ccccc1CO/N=C(\C)c1cccc(Br)c1 [reference compound],–,–,–,–,–,–,27,70
CO/N=C(/C(=O)OC)c1cccc(C)c1CO/N=C(\C)c1cccc(C(C)C)c1 [compound 95],11,0,33,4,–,–,–,–

# Reference: patent US20230172204A1 (BASF SE, priority 2020, published 2023)
